The target of assay [1] is T1, Adenosine receptor A1 (Mus musculus, UniProt Q60612).
T1 sequence (Q60612 whole entry): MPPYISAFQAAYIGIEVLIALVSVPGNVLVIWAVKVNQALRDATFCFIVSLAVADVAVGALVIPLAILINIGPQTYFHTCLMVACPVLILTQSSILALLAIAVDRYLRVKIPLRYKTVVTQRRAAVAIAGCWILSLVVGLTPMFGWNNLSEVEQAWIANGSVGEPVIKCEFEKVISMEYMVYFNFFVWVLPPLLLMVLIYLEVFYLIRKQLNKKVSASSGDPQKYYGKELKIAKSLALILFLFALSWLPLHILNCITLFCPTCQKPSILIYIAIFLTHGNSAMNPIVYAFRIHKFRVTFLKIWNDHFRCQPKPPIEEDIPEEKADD
In words: Displacement of [125I]N6-(4-amino-3-iodobenzyl)adenosine-5'-N-methyl-uronamide from mouse recombinant adenosine A1 receptor expressed in HEK293 cells. In kind it is cell-based.

The target in assay [2] is Adenosine receptor A2a (Mus musculus) (UniProt Q60613). In words: Displacement of [3H]2-[p-(2-carboxyethyl)phenyl-ethylamino]-5'-N-ethylcarbox-amidoadenosine from mouse recombinant adenosine A2A receptor expressed in HEK293 at 100 uM. In kind it is cell-based.
The target in assay [3] is Adenosine receptors; A1 & A3 (Homo sapiens) (UniProt P30542+P0DMS8). Kind of assay: Selectivity for human adenosine A3 receptor over human adenosine A1 receptor.
Assay [4] addresses T2, Adenosine receptor A3 (Mus musculus, UniProt Q61618).
T2 sequence (Q61618 whole entry): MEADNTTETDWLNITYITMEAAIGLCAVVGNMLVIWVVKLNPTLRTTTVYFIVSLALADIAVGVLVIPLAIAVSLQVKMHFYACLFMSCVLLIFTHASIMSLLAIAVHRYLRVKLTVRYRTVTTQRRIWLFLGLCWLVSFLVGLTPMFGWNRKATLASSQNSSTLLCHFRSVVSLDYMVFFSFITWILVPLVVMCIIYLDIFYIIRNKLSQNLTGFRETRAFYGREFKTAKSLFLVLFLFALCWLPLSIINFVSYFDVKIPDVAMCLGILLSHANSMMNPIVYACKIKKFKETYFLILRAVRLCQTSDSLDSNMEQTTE
Kind of assay: Displacement of [125I]N6-(-amino-3-iodobenzyl)adenosine-5'-N-methyl-uronamide from mouse recombinant adenosine A3 receptor expressed in HEK293 cells. In kind it is cell-based. On the technique in general: In a radioligand displacement assay an active substance lowers the binding of a labelled ligand.

In assay [5] the target is T3, Adenosine receptor A2a (Homo sapiens, UniProt P29274). In words: Displacement of radioligand from human adenosine A2A receptor expressed in HEK293 cells. The class given is cell-based.
For assay [6], the species on record is Mus musculus. In words: Selectivity for mouse adenosine A3 receptor over mouse adenosine A1 receptor.
Assay [7] has as its target T3, Adenosine receptor A2a. Kind of assay: Displacement of radioligand from human A2A adenosine receptor expressed in HEK293 cells at 10 uM. In kind it is cell-based.
In assay [8] the target is T4, Adenosine receptor A1 (Homo sapiens, UniProt P30542).
T4 sequence (P30542 whole entry): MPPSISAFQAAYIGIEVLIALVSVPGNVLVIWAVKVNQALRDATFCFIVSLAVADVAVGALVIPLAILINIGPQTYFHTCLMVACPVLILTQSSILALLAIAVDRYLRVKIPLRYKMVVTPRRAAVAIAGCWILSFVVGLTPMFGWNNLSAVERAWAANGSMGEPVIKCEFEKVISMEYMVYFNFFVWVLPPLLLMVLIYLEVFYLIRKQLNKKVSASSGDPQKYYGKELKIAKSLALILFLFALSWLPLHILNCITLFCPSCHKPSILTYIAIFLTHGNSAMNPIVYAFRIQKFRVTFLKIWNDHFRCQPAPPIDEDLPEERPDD
In words: Displacement of radioligand from human adenosine A1 receptor expressed in CHO cells. The class given is cell-based.

The target in assay [9] is T5, Adenosine receptor A3 (Homo sapiens, UniProt P0DMS8).
T5 sequence (P0DMS8 whole entry): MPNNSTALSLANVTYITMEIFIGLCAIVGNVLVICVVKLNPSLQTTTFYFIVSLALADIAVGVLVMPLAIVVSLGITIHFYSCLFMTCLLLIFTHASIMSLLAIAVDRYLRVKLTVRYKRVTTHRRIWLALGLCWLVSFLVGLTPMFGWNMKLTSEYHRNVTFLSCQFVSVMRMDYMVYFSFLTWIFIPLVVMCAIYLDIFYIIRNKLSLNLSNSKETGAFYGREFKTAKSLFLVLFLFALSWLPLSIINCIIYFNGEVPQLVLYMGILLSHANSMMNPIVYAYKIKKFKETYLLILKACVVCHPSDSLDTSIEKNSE
In words: Displacement of radioligand from human adenosine A3 receptor expressed in CHO cells. The class given is cell-based.

In assay [10] the target is T6, Adenosine receptor A2b (Homo sapiens, UniProt P29275).
T6 sequence (P29275 whole entry): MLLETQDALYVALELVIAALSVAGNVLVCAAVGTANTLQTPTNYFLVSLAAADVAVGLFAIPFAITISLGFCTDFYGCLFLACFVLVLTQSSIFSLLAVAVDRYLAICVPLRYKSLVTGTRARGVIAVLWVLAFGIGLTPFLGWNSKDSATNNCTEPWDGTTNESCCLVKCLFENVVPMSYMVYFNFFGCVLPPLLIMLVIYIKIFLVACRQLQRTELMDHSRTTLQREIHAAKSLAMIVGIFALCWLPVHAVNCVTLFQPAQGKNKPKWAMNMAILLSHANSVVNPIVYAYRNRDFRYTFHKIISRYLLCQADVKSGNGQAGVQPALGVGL
In words: Activation of human adenosine A2B receptor.

In assay [11] the target is Adenosine receptor A2a (Mus musculus, UniProt Q60613). Kind of assay: Displacement of [3H]2-[p-(2-carboxyethyl)phenyl-ethylamino]-5'-N-ethylcarboxamidoadenosine from mouse recombinant adenosine A2A receptor expressed in HEK293 cells. The class given is cell-based.

Here are results for 20 molecules from ChEMBL document CHEMBL1145629, “Design of (N)-methanocarba adenosine 5'-uronamides as species-independent A3 receptor-selective agonists” (Bioorg Med Chem Lett, 2008).

SMILES strings stand for the structures.

T3 sequence (P29274 whole entry): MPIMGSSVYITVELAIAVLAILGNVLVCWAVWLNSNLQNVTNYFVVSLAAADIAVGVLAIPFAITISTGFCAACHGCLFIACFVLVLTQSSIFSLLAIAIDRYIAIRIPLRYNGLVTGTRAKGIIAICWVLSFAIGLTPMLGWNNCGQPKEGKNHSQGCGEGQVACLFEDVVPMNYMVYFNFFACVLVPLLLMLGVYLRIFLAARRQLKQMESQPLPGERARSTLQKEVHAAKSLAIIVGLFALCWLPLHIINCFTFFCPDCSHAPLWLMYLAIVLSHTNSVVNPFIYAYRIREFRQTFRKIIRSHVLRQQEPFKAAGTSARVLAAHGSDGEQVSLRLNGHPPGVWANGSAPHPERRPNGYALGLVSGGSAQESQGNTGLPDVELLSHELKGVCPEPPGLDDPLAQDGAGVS
Sequence of Adenosine receptor A2a (Mus musculus) (Q60613 whole entry): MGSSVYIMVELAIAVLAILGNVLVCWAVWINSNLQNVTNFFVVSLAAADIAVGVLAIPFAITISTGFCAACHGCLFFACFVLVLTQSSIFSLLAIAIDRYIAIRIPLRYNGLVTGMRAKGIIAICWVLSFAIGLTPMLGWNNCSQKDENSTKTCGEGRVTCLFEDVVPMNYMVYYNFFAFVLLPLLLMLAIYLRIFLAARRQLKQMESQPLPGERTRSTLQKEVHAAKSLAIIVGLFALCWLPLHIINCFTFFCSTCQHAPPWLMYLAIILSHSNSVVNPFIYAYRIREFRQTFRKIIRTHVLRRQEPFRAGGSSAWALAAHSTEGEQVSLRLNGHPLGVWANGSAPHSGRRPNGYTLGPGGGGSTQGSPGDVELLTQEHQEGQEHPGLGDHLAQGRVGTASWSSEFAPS
Sequence of Adenosine receptor A2a (Mus musculus, UniProt Q60613) (Q60613 whole entry): as above

Consider `CNC(=O)C12C[C@@H]1[C@@H](n1cnc3c(NCc4cccc(Cl)c4)nc(SC)nc31)[C@H](O)[C@@H]2O` (single isomer, unassigned), for which the Ki (in general, a dissociation constant, usually derived from enzyme kinetics or from competition with a known ligand) was 0.0989 µM in [1], 0.00119 µM in assay [4] and 10 µM in assay [5]. Further, the inhibition (usually the percentage by which the read-out fell short of the control) in [2] was determined as 32%. Further, the Ratio Ki was 410 in [3] and 83 in assay [6].

With `CNC(=O)C12C[C@@H]1[C@@H](n1cnc3c(NCc4cccc(Cl)c4)nc(I)nc31)[C@H](O)[C@@H]2O` (single isomer, unassigned), the inhibition in [2] was 40%. The same molecule had a Ki in assay [5] above 10 µM.

Consider `CNC(=O)[C@@]12C[C@@H]1[C@@H](n1cnc3c(NCc4cccc(Cl)c4)nc(C#CCCCC(=O)O)nc31)[C@H](O)[C@@H]2O`, for which the inhibition in [2] was 8%; in [7] it was 43%.

Take `CNC(=O)[C@@]12C[C@@H]1[C@@H](n1cnc3c(NOC)nc(Cl)nc31)[C@H](O)[C@@H]2O`: the inhibition constant Ki in assay [1] was 1.16 µM; in assay [4], 0.877 µM; in assay [8] it was 0.265 µM; in [9] it was 0.149 µM. Besides, the inhibition in assay [2] and in assay [7] was 2% throughout. Further, the Ratio Ki was 1.8 in assay [3] and 1.3 in assay [6].

For the molecule `CCCC#Cc1nc(NCc2cccc(Cl)c2)c2ncn([C@H]3[C@H](O)[C@H](O)[C@]4(C(=O)NC)C[C@H]34)c2n1`, the inhibition was 42% in assay [2] and 80% in [7].

Consider `CNC(=O)C12C[C@@H]1[C@@H](n1cnc3c(NCc4cc(OC)ccc4OC)nc(Cl)nc31)[C@H](O)[C@@H]2O` (single isomer, unassigned), for which the EC50 (usually the concentration at which the effect is half-maximal) in assay [10] was at least 10 µM. In addition, the Ki in assay [1] stood at 0.029 µM; in assay [4] it was 0.00172 µM; in [5], 10 µM; in [11], 44.7 µM. For the same molecule, the Ratio Ki in assay [3] was found to be 1100; in assay [6], 17.

On to `CNC(=O)[C@@]12C[C@@H]1[C@@H](n1cnc3c(NCc4cccc(Cl)c4)nc(Cl)nc31)[C@H](O)[C@@H]2O`, for which, in assay [10], the concentration giving a half-maximal response (EC50) is at least 10 µM. Besides, the inhibitory constant (Ki) in assay [1] is 0.0153 µM; in assay [4], 0.00149 µM; in assay [11] it was 10.4 µM.

In [10], `CNC(=O)[C@@]12C[C@@H]1[C@@H](n1cnc3c(NCc4cccc(I)c4)nc(Cl)nc31)[C@H](O)[C@@H]2O` gave an EC50 of at least 10 µM. Also, the Ki in assay [1] is 0.00732 µM; in assay [4], 0.0008 µM; in [11], 5.35 µM.

In the case of `CNC(=O)C12C[C@@H]1[C@@H](n1cnc3c(NCC(c4ccccc4)c4ccccc4)nc(Cl)nc31)[C@H](O)[C@@H]2O` (single isomer, unassigned), the EC50 in assay [10] is at least 10 µM. Moreover, the figures for the Ki in assay [1], in assay [4] and in assay [11] were 0.00683 µM, 0.00167 µM and 1.81 µM, respectively. Besides, the Ratio Ki in [3] is 1900; in assay [6], 4.1.

In assay [10], `CNC(=O)C12C[C@@H]1[C@@H](n1cnc3c(NC4CC4c4ccccc4)nc(Cl)nc31)[C@H](O)[C@@H]2O` (single isomer, unassigned) came in with an EC50 of at least 10 µM. In addition, in assay [11], the Ki was determined as 38.2 µM.

On to `CNC(=O)[C@@]12C[C@@H]1[C@@H](n1cnc3c(NCc4cccc(C#CCCCC(=O)NCCNC(C)=O)c4)nc(Cl)nc31)[C@H](O)[C@@H]2O`, for which the inhibition worked out at 68% in assay [2] and 80% in [7].

For the molecule `CNC(=O)[C@@]12C[C@@H]1[C@@H](n1cnc3c(NCc4cccc(Cl)c4)nc(C#CCCCC(=O)NCCN)nc31)[C@H](O)[C@@H]2O`, the Ki in [1] was determined as 0.546 µM; in assay [4], 0.0086 µM; in [8] it was 0.454 µM; in assay [9], 0.00217 µM. The inhibition was 31% in assay [2] and 81% in [7]. Also, the Ratio Ki was found to be 209 in assay [3] and 64 in assay [6].

Take `CNC(=O)[C@@]12C[C@@H]1[C@@H](n1cnc3c(NCc4cccc(C#CCCCC(=O)O)c4)nc(Cl)nc31)[C@H](O)[C@@H]2O`: the values for the inhibition in assay [2] and in assay [7] were 5% and 14%, respectively.

As to `CNC(=O)[C@@]12C[C@@H]1[C@@H](n1cnc3c(NCc4cccc(Cl)c4)nc(C#CCCCC(=O)OC)nc31)[C@H](O)[C@@H]2O`, the Ki is 1.34 µM in assay [1], 0.00465 µM in assay [4] and 0.482 µM in [8]. Besides, the inhibition in assay [2] turned out to be 50%; in [7], 49%.

In the case of `CNC(=O)[C@@]12C[C@@H]1[C@@H](n1cnc3c(NCc4cccc(Cl)c4)nc(C#C[Si](C)(C)C)nc31)[C@H](O)[C@@H]2O`, the Ki is 0.159 µM in [1], 0.00446 µM in assay [4], 0.16 µM in assay [8] and 0.00098 µM in assay [9]. For the same molecule, the inhibition in assay [2] was 20%; in assay [7] it was 52%. The results for the Ratio Ki in [3] and in assay [6] were 160 and 35.6, respectively.

Regarding `C#Cc1nc(NCc2cccc(Cl)c2)c2ncn([C@H]3[C@H](O)[C@H](O)[C@]4(C(=O)NC)C[C@H]34)c2n1`, the inhibition came to 41% in [2] and 48% in assay [7].

With `CNC(=O)[C@@]12C[C@@H]1[C@@H](n1cnc3c(NCc4cc(OC)ccc4OC)nc(I)nc31)[C@H](O)[C@@H]2O`, the inhibition in [2] is 14%; in assay [7], 35%.

Turning to `CNC(=O)[C@@]12C[C@@H]1[C@@H](n1cnc3c(NCc4cccc(C#CCCCC(=O)NCCN)c4)nc(Cl)nc31)[C@H](O)[C@@H]2O`, the Ki in assay [1] was found to be 0.151 µM; in assay [4] it was 0.0119 µM; in assay [8], 0.271 µM; in [9], 0.00521 µM. Besides, the inhibition was determined as 39% in assay [2] and 58% in [7]. Besides, the Ratio Ki in assay [3] stood at 52; in assay [6] it was 13.

`CNC(=O)C12C[C@@H]1[C@@H](n1cnc3c(NCc4cccc(Br)c4)nc(Cl)nc31)[C@H](O)[C@@H]2O` (single isomer, unassigned) had an EC50 in assay [10] of at least 10 µM. Moreover, the values for the Ki in assay [1], in assay [4] and in assay [11] were 0.00879 µM, 0.0009 µM and 6.39 µM, respectively. Also, the Ratio Ki in assay [3] turned out to be 710; in [6], 9.8.

Turning to `CNC(=O)C12C[C@@H]1[C@@H](n1cnc3c(NCc4cccc(C#CCO)c4)nc(Cl)nc31)[C@H](O)[C@@H]2O` (single isomer, unassigned), the values for the inhibition in [2] and in assay [7] were 11% and 56%, respectively.
